Experiments:
[1] = target: T1, Corticotropin-releasing factor receptor 1 (Homo sapiens, UniProt P34998)
T1 sequence (P34998 whole entry): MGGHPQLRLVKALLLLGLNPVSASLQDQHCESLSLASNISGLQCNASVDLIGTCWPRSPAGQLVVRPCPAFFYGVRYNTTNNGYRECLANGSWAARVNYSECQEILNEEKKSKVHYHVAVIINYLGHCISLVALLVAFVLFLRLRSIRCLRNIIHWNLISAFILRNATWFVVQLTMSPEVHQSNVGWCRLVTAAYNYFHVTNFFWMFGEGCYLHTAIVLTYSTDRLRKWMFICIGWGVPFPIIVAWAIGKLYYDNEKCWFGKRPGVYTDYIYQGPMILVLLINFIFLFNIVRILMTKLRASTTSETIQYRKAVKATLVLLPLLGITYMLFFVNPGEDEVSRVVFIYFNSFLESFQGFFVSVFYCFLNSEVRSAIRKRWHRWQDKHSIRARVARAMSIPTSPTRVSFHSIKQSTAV

[2] = target: T2, Gastric inhibitory polypeptide receptor (Homo sapiens, UniProt P48546)
T2 sequence (P48546 whole entry): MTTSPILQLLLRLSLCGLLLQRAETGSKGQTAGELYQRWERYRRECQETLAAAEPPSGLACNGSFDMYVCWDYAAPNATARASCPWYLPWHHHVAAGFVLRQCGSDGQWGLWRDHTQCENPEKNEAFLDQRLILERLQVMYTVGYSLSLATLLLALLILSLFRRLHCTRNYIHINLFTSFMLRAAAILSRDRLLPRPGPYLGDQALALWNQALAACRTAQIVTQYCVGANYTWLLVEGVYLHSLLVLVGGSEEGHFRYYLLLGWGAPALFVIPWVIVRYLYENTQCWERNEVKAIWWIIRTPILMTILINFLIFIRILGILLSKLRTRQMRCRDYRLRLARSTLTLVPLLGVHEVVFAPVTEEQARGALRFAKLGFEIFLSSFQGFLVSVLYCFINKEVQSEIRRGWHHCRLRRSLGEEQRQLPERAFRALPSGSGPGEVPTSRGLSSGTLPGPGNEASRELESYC

[3] = target: T3, Neuropeptide Y receptor type 2 (Homo sapiens, UniProt P49146)
T3 sequence (P49146 whole entry): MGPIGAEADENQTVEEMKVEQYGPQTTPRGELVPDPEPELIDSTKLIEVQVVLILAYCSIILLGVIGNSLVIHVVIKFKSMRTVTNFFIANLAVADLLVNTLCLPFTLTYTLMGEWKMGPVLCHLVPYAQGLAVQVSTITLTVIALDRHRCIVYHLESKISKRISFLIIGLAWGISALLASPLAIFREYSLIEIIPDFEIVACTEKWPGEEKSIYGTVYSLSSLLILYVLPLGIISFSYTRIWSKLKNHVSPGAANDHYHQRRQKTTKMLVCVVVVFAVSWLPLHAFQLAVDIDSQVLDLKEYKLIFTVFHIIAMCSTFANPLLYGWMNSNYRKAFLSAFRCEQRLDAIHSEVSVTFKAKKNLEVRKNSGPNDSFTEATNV

[4] = target: T4, 5-hydroxytryptamine receptor 1A (Homo sapiens, UniProt P08908)
T4 sequence (P08908 whole entry): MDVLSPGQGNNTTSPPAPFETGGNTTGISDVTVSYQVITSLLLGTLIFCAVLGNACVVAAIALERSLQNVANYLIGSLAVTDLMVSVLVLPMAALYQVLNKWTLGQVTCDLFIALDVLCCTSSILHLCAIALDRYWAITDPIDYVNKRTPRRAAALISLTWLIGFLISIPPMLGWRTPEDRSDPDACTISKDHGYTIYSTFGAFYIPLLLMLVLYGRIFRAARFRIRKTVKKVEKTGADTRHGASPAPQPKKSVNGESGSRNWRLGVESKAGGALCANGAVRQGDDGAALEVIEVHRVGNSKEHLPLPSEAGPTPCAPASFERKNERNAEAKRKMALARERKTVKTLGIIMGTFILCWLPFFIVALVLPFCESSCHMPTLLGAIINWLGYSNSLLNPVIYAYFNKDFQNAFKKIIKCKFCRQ

[5] = target: Beta-3 adrenergic receptor (Homo sapiens, UniProt P13945)
Beta-3 adrenergic receptor, sequence (P13945 whole entry): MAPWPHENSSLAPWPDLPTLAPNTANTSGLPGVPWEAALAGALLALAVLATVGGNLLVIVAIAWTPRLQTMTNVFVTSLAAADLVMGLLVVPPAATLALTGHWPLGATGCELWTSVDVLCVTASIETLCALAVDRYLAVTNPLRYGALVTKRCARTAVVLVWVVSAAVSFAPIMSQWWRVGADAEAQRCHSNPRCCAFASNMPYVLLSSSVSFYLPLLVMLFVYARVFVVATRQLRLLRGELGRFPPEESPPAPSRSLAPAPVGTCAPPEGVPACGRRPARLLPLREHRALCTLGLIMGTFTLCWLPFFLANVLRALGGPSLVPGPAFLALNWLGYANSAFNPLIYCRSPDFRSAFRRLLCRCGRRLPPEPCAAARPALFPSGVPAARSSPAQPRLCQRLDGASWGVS

Glucocorticoid receptor = target: T5, Glucocorticoid receptor (Homo sapiens, UniProt P04150)
T5 sequence (P04150 whole entry): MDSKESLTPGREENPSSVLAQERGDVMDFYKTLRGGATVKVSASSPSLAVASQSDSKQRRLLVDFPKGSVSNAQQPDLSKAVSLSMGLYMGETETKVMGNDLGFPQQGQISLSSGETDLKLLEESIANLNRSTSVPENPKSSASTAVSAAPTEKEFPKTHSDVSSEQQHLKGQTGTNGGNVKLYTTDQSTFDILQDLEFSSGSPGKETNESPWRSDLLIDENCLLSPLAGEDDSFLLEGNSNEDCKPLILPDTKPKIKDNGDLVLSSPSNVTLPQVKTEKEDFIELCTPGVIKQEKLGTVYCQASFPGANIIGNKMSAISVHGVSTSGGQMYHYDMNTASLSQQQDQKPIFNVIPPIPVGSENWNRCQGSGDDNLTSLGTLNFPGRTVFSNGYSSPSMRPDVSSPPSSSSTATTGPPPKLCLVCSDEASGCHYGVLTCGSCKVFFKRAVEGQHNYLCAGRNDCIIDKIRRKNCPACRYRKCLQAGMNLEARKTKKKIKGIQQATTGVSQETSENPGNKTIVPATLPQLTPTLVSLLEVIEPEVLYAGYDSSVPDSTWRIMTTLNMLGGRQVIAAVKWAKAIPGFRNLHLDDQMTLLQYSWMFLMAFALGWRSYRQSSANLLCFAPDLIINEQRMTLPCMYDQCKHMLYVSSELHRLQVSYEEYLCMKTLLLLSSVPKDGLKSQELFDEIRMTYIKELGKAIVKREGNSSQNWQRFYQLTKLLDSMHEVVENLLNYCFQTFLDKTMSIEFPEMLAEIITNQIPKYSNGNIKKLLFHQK

[6] = target: T6, Gamma-aminobutyric acid receptor subunit alpha-1/alpha-2/beta-2/gamma-2 (Homo sapiens, UniProt P14867+P18507+P47869+P47870); format: functional, cell-based
T6 sequence (P14867 whole entry): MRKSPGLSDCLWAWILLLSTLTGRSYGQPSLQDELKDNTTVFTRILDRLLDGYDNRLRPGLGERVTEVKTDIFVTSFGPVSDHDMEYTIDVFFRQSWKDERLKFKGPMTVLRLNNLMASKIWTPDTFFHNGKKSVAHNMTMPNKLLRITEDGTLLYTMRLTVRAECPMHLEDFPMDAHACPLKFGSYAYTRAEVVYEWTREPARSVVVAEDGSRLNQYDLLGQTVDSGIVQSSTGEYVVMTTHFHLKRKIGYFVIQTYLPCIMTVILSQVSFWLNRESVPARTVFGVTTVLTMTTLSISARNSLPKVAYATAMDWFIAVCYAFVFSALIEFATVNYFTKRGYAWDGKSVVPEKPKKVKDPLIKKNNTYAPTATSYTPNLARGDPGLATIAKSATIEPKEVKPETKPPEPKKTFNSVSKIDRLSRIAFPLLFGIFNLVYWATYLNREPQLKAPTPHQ
T6 sequence (P47870 whole entry): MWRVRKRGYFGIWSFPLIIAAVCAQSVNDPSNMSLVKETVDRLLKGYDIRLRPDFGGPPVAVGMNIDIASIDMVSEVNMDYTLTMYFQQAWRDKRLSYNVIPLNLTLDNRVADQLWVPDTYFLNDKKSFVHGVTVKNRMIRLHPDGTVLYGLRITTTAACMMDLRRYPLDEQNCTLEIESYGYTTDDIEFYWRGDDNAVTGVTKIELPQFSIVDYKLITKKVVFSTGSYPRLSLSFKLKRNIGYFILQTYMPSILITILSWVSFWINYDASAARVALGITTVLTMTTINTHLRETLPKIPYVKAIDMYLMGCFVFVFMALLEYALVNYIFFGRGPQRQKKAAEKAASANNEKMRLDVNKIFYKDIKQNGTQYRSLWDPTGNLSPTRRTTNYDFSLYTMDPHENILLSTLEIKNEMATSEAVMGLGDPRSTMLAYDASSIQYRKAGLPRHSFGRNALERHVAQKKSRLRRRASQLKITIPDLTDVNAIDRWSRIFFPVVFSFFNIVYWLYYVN
T6 sequence (P18507 whole entry): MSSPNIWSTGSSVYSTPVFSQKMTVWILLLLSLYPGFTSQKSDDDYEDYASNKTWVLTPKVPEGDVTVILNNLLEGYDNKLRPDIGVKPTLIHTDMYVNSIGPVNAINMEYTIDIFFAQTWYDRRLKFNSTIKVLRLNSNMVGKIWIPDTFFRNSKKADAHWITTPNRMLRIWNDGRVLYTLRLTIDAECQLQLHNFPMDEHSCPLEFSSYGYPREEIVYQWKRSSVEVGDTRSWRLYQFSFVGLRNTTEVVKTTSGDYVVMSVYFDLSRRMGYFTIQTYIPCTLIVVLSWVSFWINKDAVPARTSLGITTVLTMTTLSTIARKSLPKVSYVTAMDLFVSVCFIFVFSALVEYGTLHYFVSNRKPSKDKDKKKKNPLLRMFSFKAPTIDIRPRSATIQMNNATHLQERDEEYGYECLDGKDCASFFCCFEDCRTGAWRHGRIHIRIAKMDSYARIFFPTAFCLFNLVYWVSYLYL
T6 sequence (P47869 whole entry): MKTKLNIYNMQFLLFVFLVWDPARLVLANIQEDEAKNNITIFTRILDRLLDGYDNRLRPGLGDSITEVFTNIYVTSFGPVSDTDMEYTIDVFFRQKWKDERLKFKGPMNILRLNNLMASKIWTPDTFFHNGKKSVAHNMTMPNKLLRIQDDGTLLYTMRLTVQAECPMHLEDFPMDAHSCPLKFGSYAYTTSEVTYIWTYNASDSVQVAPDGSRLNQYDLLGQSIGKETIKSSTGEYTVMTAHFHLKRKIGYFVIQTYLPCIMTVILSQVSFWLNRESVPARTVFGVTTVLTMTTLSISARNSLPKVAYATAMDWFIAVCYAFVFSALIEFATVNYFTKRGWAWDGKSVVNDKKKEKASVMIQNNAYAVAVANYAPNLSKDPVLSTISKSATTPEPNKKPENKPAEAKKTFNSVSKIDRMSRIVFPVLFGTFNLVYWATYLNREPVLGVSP

[7] = target: T6, Gamma-aminobutyric acid receptor subunit alpha-1/alpha-2/beta-2/gamma-2; format: functional, cell-based; remark: listed apart in the source
D(1A) dopamine receptor = D(1A) dopamine receptor (Homo sapiens, UniProt P21728)
D(1A) dopamine receptor, sequence (P21728 whole entry): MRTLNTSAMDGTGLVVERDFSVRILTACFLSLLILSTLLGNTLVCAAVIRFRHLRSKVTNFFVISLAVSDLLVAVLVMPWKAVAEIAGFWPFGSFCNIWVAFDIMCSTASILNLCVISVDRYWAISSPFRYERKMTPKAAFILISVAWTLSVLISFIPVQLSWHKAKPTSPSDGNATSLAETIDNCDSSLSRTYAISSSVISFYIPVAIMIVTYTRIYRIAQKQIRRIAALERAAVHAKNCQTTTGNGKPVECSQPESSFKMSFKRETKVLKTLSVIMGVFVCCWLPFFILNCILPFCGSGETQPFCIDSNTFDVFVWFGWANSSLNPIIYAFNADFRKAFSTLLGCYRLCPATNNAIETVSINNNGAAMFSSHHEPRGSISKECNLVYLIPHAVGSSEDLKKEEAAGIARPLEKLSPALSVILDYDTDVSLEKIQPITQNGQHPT
Further: assay procedure not described here.

`C=C1C[C@@H]2[C@H](CC[C@]3(C)C(=O)CC[C@@H]23)[C@@]2(C)C=CC(=O)C=C12` [EXEMESTANE] gave an AC50 [1] greater than 30 µM, an AC50 [2] greater than 30 µM and an AC50 [3] greater than 30 µM. For the same molecule, the AC50 [4] was greater than 10 µM and the AC50 [5] was greater than 30 µM.
`CC(C(O)c1ccc(O)cc1)N1CCC(Cc2ccccc2)CC1` (centres undefined) [IFENPRODIL] was tested, and the AC50 (Glucocorticoid receptor) was greater than 30 µM.
In the case of `CC(=O)N(CC(O)CO)c1c(I)c(C(=O)NCC(O)CO)c(I)c(C(=O)NCC(O)CO)c1I` (centres undefined) [IOHEXOL], the AC50 [4] is reported as greater than 10 µM.
For `CN(CCCN1c2ccccc2CCc2ccccc21)CC(=O)c1ccc(Cl)cc1` [LOFEPRAMINE], the AC50 (Glucocorticoid receptor) was greater than 30 µM.
In the case of `CN1C(=O)N(C)C2C1N(C)C(=O)N2C` (centres undefined) [MEBICAR], the AC50 [6] is reported as greater than 30 µM and the AC50 [7] is reported as greater than 30 µM.
`CC(=O)O[C@]1(C(C)=O)CC[C@H]2[C@@H]3C[C@H](C)C4=CC(=O)CC[C@]4(C)[C@H]3CC[C@@]21C` [MEDROXYPROGESTERONE ACETATE] was tested, and the AC50 (Glucocorticoid receptor) was 0.015 µM.
`CN(C/C=C/c1ccccc1)Cc1cccc2ccccc12` [NAFTIFINE] gave an AC50 (Glucocorticoid receptor) greater than 30 µM.
`CC(C)NCC1CCc2cc(CO)c([N+](=O)[O-])cc2N1` (centres undefined) [OXAMNIQUINE] showed an AC50 (Glucocorticoid receptor) greater than 10 µM.
`Nc1ccc(/N=N/c2ccccc2)c(N)n1` [PHENAZOPYRIDINE] gave an AC50 [6] greater than 30 µM and an AC50 [7] greater than 30 µM.
Work on `CN(C)CCCN1c2ccccc2Sc2ccccc21` [PROMAZINE] yielded an AC50 (D(1A) dopamine receptor) of 1.08 µM, an AC50 [1] greater than 30 µM and an AC50 [2] greater than 30 µM. It also gave an AC50 [3] greater than 30 µM, an AC50 [4] of 4.37 µM and an AC50 [5] greater than 30 µM.
`O=C(O)CCn1c2c(c3ccccc31)C[C@H](NS(=O)(=O)c1ccc(F)cc1)CC2` [RAMATROBAN] showed an AC50 (D(1A) dopamine receptor) of 6.01 µM, an AC50 (Glucocorticoid receptor) greater than 30 µM and an AC50 [3] greater than 10 µM.
With `O=P(O)(O)C(O)(Cc1cccnc1)P(=O)(O)O` [RISEDRONIC ACID] the AC50 (D(1A) dopamine receptor) was greater than 10 µM, the AC50 [1] was greater than 30 µM and the AC50 (Glucocorticoid receptor) was greater than 30 µM. It also gave an AC50 [2] greater than 30 µM, an AC50 [3] greater than 30 µM and an AC50 [4] greater than 10 µM. It also gave an AC50 [5] greater than 30 µM.
`O=C1CCC(N2C(=O)c3ccccc3C2=O)C(=O)N1` (centres undefined) [THALIDOMIDE] was tested, and the AC50 (D(1A) dopamine receptor) was greater than 10 µM, the AC50 [1] was greater than 30 µM and the AC50 (Glucocorticoid receptor) was greater than 30 µM. It also gave an AC50 [2] greater than 30 µM, an AC50 [3] greater than 30 µM and an AC50 [4] greater than 10 µM. It also gave an AC50 [5] greater than 30 µM.
Work on `CC(=O)N[C@H]1[C@H]([C@H](O)[C@H](O)CO)OC(C(=O)O)=C[C@@H]1N=C(N)N` [ZANAMIVIR] yielded an AC50 (Glucocorticoid receptor) greater than 30 µM.
